In US11970498B2, “CDK2 inhibitors” (BLUEPRINT MEDICINES CORPORATION, priority 2021, dated 2024):

How the values were obtained:
CDK2/Cyclin E = CDK2/Cyclin E (Homo sapiens, UniProt P24941); experiment: CDK2/Cyclin E biochemical phosphorylation assay (Caliper mobility shift); conditions: apparent IC50; 1.0 mM ATP or ATP Km; 1.25 nM enzyme; 25° C.; read-out: CDK2/cyclin E1 IC50
In short: (§1)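 Caliper electrophoretic separation of substrate and phosphopeptide gave apparent IC50s. Enzymes: CDK1/Cyclin B1 GST-tag 1.5 nM, CDK2/Cyclin E 1.25 nM; ATP 1.0 mM or at Km; 7.5 µM FL-peptide; pH 7.5 HEPES buffer, 1% DMSO; room temperature until 10–20% phosphorylated, then EDTA quench.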

CDK1/Cyclin B1, GST-tag = molecular target: T1, CDK1/Cyclin B1, GST-tag (Homo sapiens, UniProt P06493); experiment: CDK1/Cyclin B1 biochemical phosphorylation assay (Caliper mobility shift); conditions: apparent IC50; 1.0 mM ATP or ATP Km; 1.5 nM enzyme; 25° C.
T1 construct: GST
In short: as §1

T1 sequence (P06493 whole entry): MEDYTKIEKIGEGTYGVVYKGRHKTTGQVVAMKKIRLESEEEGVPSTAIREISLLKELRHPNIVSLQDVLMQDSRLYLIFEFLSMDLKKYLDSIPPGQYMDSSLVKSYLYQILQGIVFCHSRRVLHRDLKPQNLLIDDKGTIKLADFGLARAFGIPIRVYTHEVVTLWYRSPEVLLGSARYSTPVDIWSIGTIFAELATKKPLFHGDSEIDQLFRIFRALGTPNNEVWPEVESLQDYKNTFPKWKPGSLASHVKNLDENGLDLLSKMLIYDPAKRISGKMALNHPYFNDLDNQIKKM
T1 sequence (P14635 whole entry partner): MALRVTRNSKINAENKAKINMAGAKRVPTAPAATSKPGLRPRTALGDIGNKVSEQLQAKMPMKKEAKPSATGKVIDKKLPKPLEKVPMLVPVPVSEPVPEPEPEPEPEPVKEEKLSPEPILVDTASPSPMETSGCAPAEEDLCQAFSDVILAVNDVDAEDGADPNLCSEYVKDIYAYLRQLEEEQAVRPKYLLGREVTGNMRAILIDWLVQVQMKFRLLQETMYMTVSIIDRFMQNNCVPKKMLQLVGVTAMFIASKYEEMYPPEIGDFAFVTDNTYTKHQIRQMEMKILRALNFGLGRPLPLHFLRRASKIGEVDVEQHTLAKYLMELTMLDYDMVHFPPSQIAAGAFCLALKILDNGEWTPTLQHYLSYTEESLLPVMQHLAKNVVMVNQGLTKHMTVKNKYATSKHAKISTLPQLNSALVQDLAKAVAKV

SMILES | IC50 (CDK2/Cyclin E) | IC50 (CDK1/Cyclin B1, GST-tag)
C[C@H](c1cccnc1)n1ncc2ncc(Nc3cc(OC(F)F)[nH]n3)nc21 [Example 91, (R)-N-(5-(difluoromethoxy)-1H-pyrazol-3-yl)-1-(1-(pyridin-3-yl)ethyl)-1H-pyrazolo[3,4-b]pyrazin-6-amine] | 20 to 30 nM | ≥ 500 nM
COc1cc(Nc2cnc3cnn(CC4CCOCC4)c3n2)n[nH]1 [Example 92, N-(5-methoxy-1H-pyrazol-3-yl)-1-((tetrahydro-2H-pyran-4-yl)methyl)-1H-pyrazolo[3,4-b]pyrazin-6-amine] | ≤ 10 nM | ≥ 500 nM
C[C@@H](c1ccccc1)n1ncc2ncc(Nc3cc(OC(F)F)[nH]n3)nc21 [Example 93, (S)-N-(5-(difluoromethoxy)-1H-pyrazol-3-yl)-1-(1-phenylethyl)-1H-pyrazolo[3,4-b]pyrazin-6-amine] | ≤ 10 nM | ≥ 500 nM
CC[C@@H](c1cccnc1)n1ncc2ncc(Nc3cc(OC(F)F)[nH]n3)nc21 [Example 94, (S)-N-(5-(difluoromethoxy)-1H-pyrazol-3-yl)-1-(1-(pyridin-3-yl)propyl)-1H-pyrazolo[3,4-b]pyrazin-6-amine] | ≤ 10 nM | ≥ 500 nM
Cc1ncccc1Cn1ncc2ncc(Nc3cc(OC(F)F)[nH]n3)nc21 [Example 95, N-(5-(difluoromethoxy)-1H-pyrazol-3-yl)-1-((2-methylpyridin-3-yl)methyl)-1H-pyrazolo[3,4-b]pyrazin-6-amine] | 20 to 30 nM | ≥ 500 nM
Cc1ccncc1Cn1ncc2ncc(Nc3cc(OC(F)F)[nH]n3)nc21 [Example 96, N-(5-(difluoromethoxy)-1H-pyrazol-3-yl)-1-((4-methylpyridin-3-yl)methyl)-1H-pyrazolo[3,4-b]pyrazin-6-amine] | 30 to 100 nM | ≥ 500 nM
CC[C@@H](c1ccccn1)n1ncc2ncc(Nc3cc(OC(F)F)[nH]n3)nc21 [Example 97, (S)-N-(5-(difluoromethoxy)-1H-pyrazol-3-yl)-1-(1-(pyridin-2-yl)propyl)-1H-pyrazolo[3,4-b]pyrazin-6-amine] | ≤ 10 nM | ≥ 500 nM
CC1(Cn2ncc3ncc(Nc4cc(OC(F)F)[nH]n4)nc32)CC1 [Example 98, N-(5-(difluoromethoxy)-1H-pyrazol-3-yl)-1-((1-methylcyclopropyl)methyl)-1H-pyrazolo[3,4-b]pyrazin-6-amine] | 10 to 20 nM | ≥ 500 nM
CC(C)Cn1ncc2ncc(Nc3cc(OC(F)F)[nH]n3)nc21 [Example 100, N-(5-(difluoromethoxy)-1H-pyrazol-3-yl)-1-isobutyl-1H-pyrazolo[3,4-b]pyrazin-6-amine] | 10 to 20 nM | ≥ 500 nM
FC(F)Oc1cc(Nc2cnc3cnn([C@H](c4ccccn4)C4CC4)c3n2)n[nH]1 [Example 102, (S)-1-(cyclopropyl(pyridin-2-yl)methyl)-N-(5-(difluoromethoxy)-1H-pyrazol-3-yl)-1H-pyrazolo[3,4-b]pyrazin-6-amine] | 20 to 30 nM | ≥ 500 nM
CC1(Cn2ncc3ncc(Nc4cc(OC(F)F)[nH]n4)nc32)CCOCC1 [Example 110, N-(5-(difluoromethoxy)-1H-pyrazol-3-yl)-1-((4-methyltetrahydro-2H-pyran-4-yl)methyl)-1H-pyrazolo[3,4-b]pyrazin-6-amine] | ≤ 10 nM | 100 to 500 nM
N#CC1(Cn2ncc3ncc(Nc4cc(OC(F)F)[nH]n4)nc32)CCOCC1 [Example 115, 4-((6-((5-(difluoromethoxy)-1H-pyrazol-3-yl)amino)-1H-pyrazolo[3,4-b]pyrazin-1-yl)methyl)tetrahydro-2H-pyran-4-carbonitrile] | 30 to 100 nM | ≥ 500 nM
FC(F)Oc1cc(Nc2cnc3cnn(CC45CC(F)(C4)C5)c3n2)n[nH]1 [Example 116, N-(5-(difluoromethoxy)-1H-pyrazol-3-yl)-1-((3-fluorobicyclo[1.1.1]pentan-1-yl)methyl)-1H-pyrazolo[3,4-b]pyrazin-6-amine] | ≤ 10 nM | ≥ 500 nM
Fc1nn(CC2CCOCC2)c2nc(Nc3cc(OC(F)F)[nH]n3)cnc12 [Example 117, N-(5-(difluoromethoxy)-1H-pyrazol-3-yl)-3-fluoro-1-((tetrahydro-2H-pyran-4-yl)methyl)-1H-pyrazolo[3,4-b]pyrazin-6-amine] | ≤ 10 nM | 100 to 500 nM
CC1(Cn2ncc3ncc(Nc4cc(OC(F)F)[nH]n4)nc32)COC1 [Example 119, N-(5-(difluoromethoxy)-1H-pyrazol-3-yl)-1-((3-methyloxetan-3-yl)methyl)-1H-pyrazolo[3,4-b]pyrazin-6-amine] | ≤ 10 nM | ≥ 500 nM
Fc1nn(Cc2cccnc2)c2nc(Nc3cc(OC(F)F)[nH]n3)cnc12 [Example 120, N-(5-(difluoromethoxy)-1H-pyrazol-3-yl)-3-fluoro-1-(pyridin-3-ylmethyl)-1H-pyrazolo[3,4-b]pyrazin-6-amine] | ≤ 10 nM | ≥ 500 nM
FC(F)Oc1cc(Nc2cnc3cnn(CC4(C(F)(F)F)CCOCC4)c3n2)n[nH]1 [Example 121, N-(5-(difluoromethoxy)-1H-pyrazol-3-yl)-1-((4-(trifluoromethyl)tetrahydro-2H-pyran-4-yl)methyl)-1H-pyrazolo[3,4-b]pyrazin-6-amine] | 30 to 100 nM | ≥ 500 nM
FC(F)Oc1cc(Nc2cnc3cnn(CC4(C(F)F)CCOCC4)c3n2)n[nH]1 [Example 122, N-(5-(difluoromethoxy)-1H-pyrazol-3-yl)-1-((4-(difluoromethyl)tetrahydro-2H-pyran-4-yl)methyl)-1H-pyrazolo[3,4-b]pyrazin-6-amine] | 20 to 30 nM | ≥ 500 nM

Further lines, results first:

IC50 (CDK2/Cyclin E) | IC50 (CDK1/Cyclin B1, GST-tag) | SMILES
≤ 10 nM | ≥ 500 nM | FC(F)Oc1cc(Nc2cnc3cnn(C[C@@H]4COCCO4)c3n2)n[nH]1 [Example 88, (R)-1-((1,4-dioxan-2-yl)methyl)-N-(5-(difluoromethoxy)-1H-pyrazol-3-yl)-1H-pyrazolo[3,4-b]pyrazin-6-amine]
≤ 10 nM | ≥ 500 nM | FC(F)Oc1cc(Nc2cnc3cnn(CC4CC5CCC(C4)O5)c3n2)n[nH]1 (centres unmarked) [Example 99, 1-((8-oxabicyclo[3.2.1]octan-3-yl)methyl)-N-(5-(difluoromethoxy)-1H-pyrazol-3-yl)-1H-pyrazolo[3,4-b]pyrazin-6-amine]
≤ 10 nM | 100 to 500 nM | FC(F)Oc1cc(Nc2cnc3cnn(CC4CCC4)c3n2)n[nH]1 [Example 101, 1-(cyclobutylmethyl)-N-(5-(difluoromethoxy)-1H-pyrazol-3-yl)-1H-pyrazolo[3,4-b]pyrazin-6-amine]
20 to 30 nM | ≥ 500 nM | FC(F)Oc1cc(Nc2cnc3cnn(C[C@@H]4CCCCO4)c3n2)n[nH]1 [Example 103, (S)-N-(5-(difluoromethoxy)-1H-pyrazol-3-yl)-1-((tetrahydro-2H-pyran-2-yl)methyl)-1H-pyrazolo[3,4-b]pyrazin-6-amine]
≤ 10 nM | 100 to 500 nM | FC(F)Oc1cc(Nc2cnc3cnn(CC4CCCC4)c3n2)n[nH]1 [Example 104, 1-(cyclopentylmethyl)-N-(5-(difluoromethoxy)-1H-pyrazol-3-yl)-1H-pyrazolo[3,4-b]pyrazin-6-amine]
≤ 10 nM | 100 to 500 nM | FC(F)Oc1cc(Nc2cnc3cnn(CC4CCCCC4)c3n2)n[nH]1 [Example 105, 1-(cyclohexylmethyl)-N-(5-(difluoromethoxy)-1H-pyrazol-3-yl)-1H-pyrazolo[3,4-b]pyrazin-6-amine]
≤ 10 nM | 100 to 500 nM | FC(F)Oc1cc(Nc2cnc3cnn(CC45CC(C4)C5)c3n2)n[nH]1 [Example 106, 1-(bicyclo[1.1.1]pentan-1-ylmethyl)-N-(5-(difluoromethoxy)-1H-pyrazol-3-yl)-1H-pyrazolo[3,4-b]pyrazin-6-amine]
20 to 30 nM | ≥ 500 nM | FC(F)Oc1cc(Nc2cnc3cnn(C[C@H]4CCCCO4)c3n2)n[nH]1 [Example 107, (R)-N-(5-(difluoromethoxy)-1H-pyrazol-3-yl)-1-((tetrahydro-2H-pyran-2-yl)methyl)-1H-pyrazolo[3,4-b]pyrazin-6-amine]
≤ 10 nM | ≥ 500 nM | FC(F)Oc1cc(Nc2cnc3cnn(CC4CCC(F)(F)CC4)c3n2)n[nH]1 [Example 108, 1-((4,4-difluorocyclohexyl)methyl)-N-(5-(difluoromethoxy)-1H-pyrazol-3-yl)-1H-pyrazolo[3,4-b]pyrazin-6-amine]
≤ 10 nM | ≥ 500 nM | FC(F)Oc1cc(Nc2cnc3cnn(C[C@@H]4[C@@H]5COC[C@@H]54)c3n2)n[nH]1 [Example 111, 1-(((1R,5S,6r)-3-oxabicyclo[3.1.0]hexan-6-yl)methyl)-N-(5-(difluoromethoxy)-1H-pyrazol-3-yl)-1H-pyrazolo[3,4-b]pyrazin-6-amine]
20 to 30 nM | ≥ 500 nM | FC(F)Oc1cc(Nc2cnc3cnn(CC4(F)CCOCC4)c3n2)n[nH]1 [Example 112, N-(5-(difluoromethoxy)-1H-pyrazol-3-yl)-1-((4-fluorotetrahydro-2H-pyran-4-yl)methyl)-1H-pyrazolo[3,4-b]pyrazin-6-amine]
30 to 100 nM | ≥ 500 nM | FC(F)Oc1cc(Nc2cnc3cnn(C[C@H]4CCCO4)c3n2)n[nH]1 [Example 113, (R)-N-(5-(difluoromethoxy)-1H-pyrazol-3-yl)-1-((tetrahydrofuran-2-yl)methyl)-1H-pyrazolo[3,4-b]pyrazin-6-amine]
≤ 10 nM | 100 to 500 nM | FC(F)Oc1cc(Nc2cnc3cnn(CC45CCC(CC4)OC5)c3n2)n[nH]1 [Example 118, 1-((2-oxabicyclo[2.2.2]octan-4-yl)methyl)-N-(5-(difluoromethoxy)-1H-pyrazol-3-yl)-1H-pyrazolo[3,4-b]pyrazin-6-amine]
